According to PubChem BioAssay AID248 (DTP/NCI, 2004):
Inconclusive results and toxic doses are left out. Cut-off read from the data, not from the text of the source: active = T/C of 150% or more; inactive = T/C below 125%.

Tested on: L1210 leukemia ip in BDF1 mice, survival T/C
Test: NCI In Vivo Anticancer Drug Screen. Data for tumor model L1210 Leukemia (intraperitoneal) in B6D2F1 (BDF1) mice
Details: endpoint: mean survival time, higher = longer survival
Outline: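 Mice bearing the transplanted tumor received compound or vehicle. Survival of the treated group was divided by that of the vehicle-treated control group to give the ratio.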

[1] = dose: 100.0 mg/kg/injection, schedule: Q01DX001 (ip), vehicle: carboxymethylcellulose (CMC)
[2] = dose: 75.0 mg/kg/injection, schedule: Q01DX009 (ip), vehicle: saline
[3] = dose: 150.0 mg/kg/injection, schedule: Q01DX009 (ip), vehicle: saline
[4] = dose: 100.0 mg/kg/injection, schedule: Q01DX001 (ip), vehicle: saline
[5] = dose: 200.0 mg/kg/injection, schedule: Q01DX001 (ip), vehicle: saline
[6] = dose: 400.0 mg/kg/injection, schedule: Q01DX001 (ip), vehicle: saline
[7] = dose: 100.0 mg/kg/injection, schedule: Q04DX003 (ip), vehicle: saline with Tween-80
[8] = dose: 200.0 mg/kg/injection, schedule: Q04DX003 (ip), vehicle: saline with Tween-80

Measured: T/C

CCOP(=O)(Nc1ccc2oc(=O)c3ccccc3c2c1)OCC
inactive: dose: 50.0 mg/kg/injection, schedule: Q01DX001 (ip), vehicle: carboxymethylcellulose (CMC) 100 % of control | [1] 100 % of control | dose: 200.0 mg/kg/injection, schedule: Q01DX001 (ip), vehicle: carboxymethylcellulose (CMC) 110 % of control | dose: 400.0 mg/kg/injection, schedule: Q01DX001 (ip), vehicle: carboxymethylcellulose (CMC) 97 % of control

CCSCCCCO
inactive: dose: 75.0 mg/kg/injection, schedule: Q01DX001 (ip), vehicle: saline 101 % of control | [2] 102 % of control | dose: 150.0 mg/kg/injection, schedule: Q01DX001 (ip), vehicle: saline 101 % of control | [3] 100 % of control | dose: 300.0 mg/kg/injection, schedule: Q01DX001 (ip), vehicle: saline 97 % of control

Cc1ccc(S(=O)NNc2ccccc2)cc1 (configuration not stated)
inactive: [4] 93 % of control | [5] 104 % of control | [6] 93 % of control

CCC(=O)C(CC(C)[N+](C)(C)C)(c1ccccc1)c1ccccc1 (configuration not stated)
inactive: [1] 92 % of control

CCOC(=O)N/N=C/c1ccc(O)cc1
inactive: dose: 100.0 mg/kg/injection, schedule: Q04DX002 (ip), vehicle: Klucel (hydroxypropylcellulose) (HPC) 91 % of control | dose: 200.0 mg/kg/injection, schedule: Q04DX002 (ip), vehicle: Klucel (hydroxypropylcellulose) (HPC) 102 % of control | dose: 400.0 mg/kg/injection, schedule: Q04DX002 (ip), vehicle: Klucel (hydroxypropylcellulose) (HPC) 91 % of control

C#CC1(OC(C)=O)CCCCC1
inactive: [4] 102 % of control | [7] 105 % of control | [5] 95 % of control | [8] 98 % of control | [6] 100 % of control | dose: 400.0 mg/kg/injection, schedule: Q04DX003 (ip), vehicle: saline with Tween-80 93 % of control

CCCCCCSC(=O)Nc1ccc(C)c(NC(=O)SCCCCCC)c1
inactive: [7] 91 % of control | [8] 89 % of control

O=[N+]([O-])c1ccc(/C=C/c2ccccc2Br)cc1
inactive: dose: 100.0 mg/kg/injection, schedule: Q01DX009 (ip), vehicle: Klucel (hydroxypropylcellulose) (HPC) 106 % of control | dose: 100.0 mg/kg/injection, schedule: Q04DX003 (ip), vehicle: Klucel (hydroxypropylcellulose) (HPC) 100 % of control | dose: 200.0 mg/kg/injection, schedule: Q01DX009 (ip), vehicle: Klucel (hydroxypropylcellulose) (HPC) 97 % of control | dose: 200.0 mg/kg/injection, schedule: Q04DX003 (ip), vehicle: Klucel (hydroxypropylcellulose) (HPC) 98 % of control | dose: 400.0 mg/kg/injection, schedule: Q01DX009 (ip), vehicle: Klucel (hydroxypropylcellulose) (HPC) 97 % of control | dose: 400.0 mg/kg/injection, schedule: Q04DX003 (ip), vehicle: Klucel (hydroxypropylcellulose) (HPC) 98 % of control

COC(=O)C(C)C1CCC2C3=CC=C4CC(OC(C)=O)CCC4(C)C3CCC21C (configuration not stated)
inactive: dose: 100.0 mg/kg/injection, schedule: Q01DX001 (ip), vehicle: saline with Tween-80 93 % of control | dose: 200.0 mg/kg/injection, schedule: Q01DX001 (ip), vehicle: saline with Tween-80 98 % of control | dose: 400.0 mg/kg/injection, schedule: Q01DX001 (ip), vehicle: saline with Tween-80 104 % of control

COc1ccc2c(c1)c(CC(=O)O)c(C)n2C(=O)c1ccc(Cl)cc1
inactive: dose: 50.0 mg/kg/injection, schedule: Q01DX001 (ip), vehicle: saline 88 % of control | [4] 95 % of control | [5] 95 % of control | [6] 93 % of control

Cc1c(-c2ccccc2Br)nc2ccccc2c1C(=O)O
inactive: [4] 96 % of control | [5] 89 % of control

CN(CCN(C)Cc1ccccc1)Cc1ccccc1
inactive: dose: 50.0 mg/kg/injection, schedule: Q01DX009 (ip), vehicle: saline 98 % of control | dose: 100.0 mg/kg/injection, schedule: Q01DX009 (ip), vehicle: saline 101 % of control | dose: 100.0 mg/kg/injection, schedule: Q04DX003 (ip), vehicle: saline 103 % of control | dose: 200.0 mg/kg/injection, schedule: Q04DX003 (ip), vehicle: saline 98 % of control

Fc1ccc(C(c2ccc(F)cc2)C(Cl)Cl)cc1
inactive: dose: 100.0 mg/kg/injection, schedule: Q01DX009 (ip), vehicle: saline with Tween-80 95 % of control | dose: 200.0 mg/kg/injection, schedule: Q01DX009 (ip), vehicle: saline with Tween-80 97 % of control | dose: 400.0 mg/kg/injection, schedule: Q01DX009 (ip), vehicle: saline with Tween-80 93 % of control

O=C(O)C12CCC(CC1)CC2
inactive: [2] 100 % of control | [4] 93 % of control | [3] 103 % of control | [5] 88 % of control | dose: 300.0 mg/kg/injection, schedule: Q01DX009 (ip), vehicle: saline 100 % of control | [6] 90 % of control
